Experimental data as given in patent US4587052A, “1H-pyrrolo-[2,1-C][1,4]benzodiazepine-2-acrylamide compounds having antitumor activity” (priority 1983, dated 1986).
Like-named read-outs stand apart in the source and are kept apart here.

How the values were obtained:
[1] = system: mouse ascitic leukemia p388; test: Antitumor activity test (mouse ascitic leukemia p388 i.p. in BDF1-strain male mice); format: in vivo; settings: for Therapeutic index: Table 2, toxic dose/effective dose; for Prolongation of survival time, %: ip
Protocol: 10^6 Cells of mouse ascitic leukemia p388 were administered intraperitoneally into each member of the groups of 8 to 12 BDF1 -strain male mice, each 18 to 20 g in body weight. After 24 hr from the administration, a test compound was intraperitoneally administered to each member of the test group in a predetermined dose once a day for 4 consecutive days. Days elapsed until death of the test animal were counted for each mouse. To each member of the control group, a physiological saline solution was administered. The average survival period of the animal was represented by mean survival time. The prolongation of survival time, indicative of the effectiveness of a test compound, was calculated by the following equation. [formula] The therapeutic index was calculated by the following equation. [formula]

in vivo = settings: mouse, ip
Protocol: A test compound was dissolved in dimethyl sulfoxide and the solution was diluted to 50-fold with a physiological saline solution. This original solution was serially diluted at a common ratio of 1.15. Each resulting solution was administered intraperitoneally to groups of 10 to 15 dd-strain male mice, each 18 to 20 g in body weight. […] The LD50 was calculated from the number of dead mice of each group according to the Probit method.

[2] = already known; cited from earlier work
[3] = already known; cited from earlier work; remark: listed apart in the source
[4] = Table 2, i.p., dd-strain male mice, 3 weeks, read-out: LD50
[5] = Table 1, i.p., dd-strain male mice, 3 weeks, read-out: LD50

SMILES	Therapeutic index [1]	LD50 at 504 h (in vivo) [mg/kg]	Prolongation of survival time, % ([1]; 30 mg/kg) [%]	LD50 at 504 h (in vivo; [5]) [mg/kg]	other results
Cc1ccc2c(c1OCCCN)NC(O)C1CC(/C=C/C(N)=O)=CN1C2=O (stereo not drawn) [(CH2)3 NH2, 5,10,11,11a-tetrahydro-9-(3-aminopropoxy)-11-hydroxy-8-methyl-5-oxo-1H-pyrrolo[2,1-C][1,4]benzodiazepine-2-acrylamide]	93.5	103			
Cc1ccc2c(c1OCc1ccccc1C#N)NC(O)C1CC(/C=C/C(N)=O)=CN1C2=O (stereo not drawn) [5,10,11,11a-tetrahydro-9-(2-cyanobenzyloxy)-11-hydroxy-8-methyl-5-oxo-1H-pyrrolo-[2,1-C][1,4]benzodiazepine-2-acrylamide]	73.3	120			
COC1Nc2c(ccc(C)c2OCCC(=O)O)C(=O)N2C=C(/C=C/C(N)=O)CC12 (stereo not drawn) [CH2 CH2 COOK, 5,10,11,11a-tetrahydro-9-(2-carboxyethoxy)-11-methoxy-8-methyl-5-oxo-1H-pyrrolo-[2,1-C][1,4]benzodiazepine-2-acrylamide]	72.4	105			Prolongation of survival time, % ([1]; 10 mg/kg): 172%
COC1Nc2c(ccc(C)c2OCCc2ccc(C(=O)O)cc2)C(=O)N2C=C(/C=C/C(N)=O)CC12 (stereo not drawn) [5,10,11,11a-tetrahydro-9-[2-(4-carboxyphenyl)-ethoxy]-11-methoxy-8-methyl-5-oxo-1H-pyrrolo-[2,1-C][1,4]benzodiazepine-2-acrylamide]	82.3				Prolongation of survival time, % ([1]; 10 mg/kg): 165%; LD50 at 504 h (in vivo; [4]): 128 mg/kg
Cc1ccc2c(c1OC(=O)CCCCC(=O)O)NC(O)C1CC(/C=C/C(N)=O)=CN1C2=O (stereo not drawn) [COCH2 CH2 CH2 CH2COOK, 5,10,11,11a-tetrahydro-9-(5-carboxypentanoyloxy)-11-hydroxy-8-methyl-5-oxo-1H-pyrrolo-[2,1-C][1,4]-benzodiazepine-2-acrylamide]			172.5	157	
Cc1ccc2c(c1OC(=O)COCC(=O)O)NC(O)C1CC(/C=C/C(N)=O)=CN1C2=O (stereo not drawn) [COCH2OCH2COOK, 5,10,11,11a-tetrahydro-9-(4-carboxy-3-oxabutanoyloxy)-11-hydroxy-8-methyl-5-oxo-1H-pyrrolo-[2,1-C][1,4]-benzodiazepine-2-acrylamide]			181.2	160	
Cc1ccc2c(c1OC(=O)CCCC(=O)O)NC(O)C1CC(/C=C/C(N)=O)=CN1C2=O (stereo not drawn) [COCH2 CH2 CH2COOK, 5,10,11,11a-tetrahydro-9-(4-carboxybutanoyloxy)-11-hydroxy-8-methyl-5-oxo-1H-pyrrolo-[2,1-C][1,4]-benzodiazepine-2-acrylamide]			185	151	
COC1Nc2c(ccc(C)c2OCC(=O)O)C(=O)N2C=C(/C=C/C(N)=O)CC12 (stereo not drawn) [CH2 COONa, 5,10,11,11a-tetrahydro-9-carboxymethoxy-11-methoxy-8-methyl-5-oxo-1H-pyrrolo-[2,1-C][1,4]benzodiazepine-2-acrylamide]	88.5	102			
COC1Nc2c(ccc(C)c2OC(=O)c2ccccc2C(=O)O)C(=O)N2C=C(C=CC(N)=O)CC12 (stereo not drawn) [5,10,11,11a-tetrahydro-9-(2-carboxyphenylcarbonyloxy)-11-methoxy-8-methyl-5-oxo-1H-pyrrolo-[2,1-C][1,4]-benzodiazepine-2-acrylamide]			130.2	86.9	
COC1Nc2c(ccc(C)c2OC(=O)c2cccc([N+](=O)[O-])c2C(=O)O)C(=O)N2C=C(C=CC(N)=O)CC12 (stereo not drawn) [5,10,11,11a-tetrahydro-9-(2-carboxy-3-nitrophenylcarbonyloxy)-11-methoxy-8-methyl-5-oxo-1H-pyrrolo-[2,1-C][1,4]-benzodiazepine-2-acrylamide]			152	95	
Cc1ccc2c(c1OCCCC#N)NC(O)C1CC(/C=C/C(N)=O)=CN1C2=O (stereo not drawn) [(CH2)3 CN, 5,10,11,11a-Tetrahydro-9-(3-cyanopropoxy)-11-hydroxy-8-methyl-5-oxo-1H-pyrrolo-[2,1-C][1,4]benzodiazepine-2-acrylamide]	95.2				Prolongation of survival time, % ([1]; 10 mg/kg): 188%; LD50 at 504 h (in vivo; [4]): 110 mg/kg
CC(=O)SC(CC(=O)Oc1c(C)ccc2c1NC(O)C1CC(/C=C/C(N)=O)=CN1C2=O)C(=O)O (stereo not drawn) [5,10,11,11a-tetrahydro-9-(3-carboxy-3-S-acetylmercaptopropanoyloxy)-11-hydroxy-8-methyl-5-oxo-1H-pyrrolo-[2,1-C][1,4]-benzodiazepine-2-acrylamide]				138	
Cc1ccc2c(c1O)N=CC1CC(/C=C/C(N)=O)=CN1C2=O (stereo not drawn) [P'B'A', 5,11,11a-trihydro-9-hydroxy-8-methyl-5-oxo-1H-pyrrolo[2,1-C][1,4]benzodiazepine-2-acylamide]					antitumor activity (in words) [2]: an antitumor activity; antibacterial activity (in words) [3]: have an antibacterial activity
Cc1ccc2c(c1OCCC#N)NC(O)C1CC(/C=C/C(N)=O)=CN1C2=O (stereo not drawn) [(CH2)2 CN, 5,10,11,11a-tetrahydro-9-(2-cyanoethoxy)-11-hydroxy-8-methyl-5-oxo-1H-pyrrolo-[2,1-C][1,4]benzodiazepine-2-acrylamide]	103.8				LD50 at 504 h (in vivo; [4]): 118 mg/kg
Cc1ccc2c(c1O)NC(O)C1CC(/C=C/C(N)=O)=CN1C2=O (stereo not drawn) [PBA, 5,10,11,11a-tetrahydro-9,11-dihydroxy-8-methyl-5-oxo-1H-pyrrolo-[2,1-C][1,4]-benzodiazepine-2-acrylamide, reference compound]	36.5	0.73			antitumor activity (in words) [2]: an antitumor activity; antibacterial activity (in words) [3]: have an antibacterial activity
CCCCCCCCCC(CC(=O)Oc1c(C)ccc2c1NC(O)C1CC(C=CC(N)=O)=CN1C2=O)C(=O)O (stereo not drawn) [Table 1 entry 4 (R^1 not printed), 5,10,11,11a-tetrahydro-9-(3-carboxydodecanoyloxy)-11-hydroxy-8-methyl-5-oxo-1H-pyrrolo-[2,1-C][1,4]-benzodiazepine-2-acrylamide]				122	
Cc1ccc2c(c1OC(=O)CCC(=O)O)NC(O)C1CC(/C=C/C(N)=O)=CN1C2=O (stereo not drawn) [COCH2 CH2COOK, 5,10,11,11a-tetrahydro-9-(3-carboxypropanoyloxy)-11-hydroxy-8-methyl-5-oxo-1H-pyrrolo[2,1-C][1,4]-benzodiazepine-2-acrylamide]		120	160		
CCC(CCCN)Oc1c(C)ccc2c1NC(OC)C1CC(/C=C/C(N)=O)=CN1C2=O (stereo not drawn) [5,10, 11, 11a-tetrahydro-9-(4-amino-1-ethylpropoxy)-11-methoxy-8-methyl-5-oxo-1H-pyrrolo-[2,1-C][1,4]benzodiazepine-2-acrylamide]	78.4				LD50 at 504 h (in vivo; [4]): 115 mg/kg
